Results on 4 compounds are retold here after patent US9820997B2, “Pharmaceutical composition for treating disease associated with demyelination of neurons and method of using the pharmaceutical composition” (Samsung Electronics Co., Ltd., priority 2014, dated 2017).

Assay [1] deals with Tr-J mice (CMT mouse model). In words: Sciatic nerve morphology by toluidine blue staining and g-ratio. The settings on record: 50 mg/kg, 2 months. In kind it is in vivo. An excerpt:
In this example, the effect of sulfasalzine on the CMT was investigated using Trembler-J (Tr-J) mice. The Tr-J mouse has a missense mutation in the murine peripheral myelin protein-22 gene (Pmp22). Pmp22 mutations are believed to cause the neuropathies of Charcot-Marie-tooth disease in humans (Nature 356, 241-244 (19 Mar. 1992); doi:10.1038/356241a0). Two month old heterozygous Tr^J mice in the C57BL/6J background were obtained from Jackson Laboratories (Bar Harbor, Me.). Matings between Tr-J heterozygous females and males in the C57BL/6 genetic background were implemented to generate Tr-J heterozygous and wild-type controls.
Sulfasalazine was obtained from Sigma-Aldrich, St. Louis. Sulfasalazine (50 mg/kg daily) was administered orally to female mice (n=4-5 per group) via sulfasalazine-containing drinking water. Before sulfasalazine oral intervention, weight and daily water intake of the mice was measured to determine the dose of sulfasalazine. Each Tr-J and WT mice were administered sulfasalazine drinking water for 2 months (50 mg/kg daily).
After 2 months oral intervention, sciatic nerves were harvested from mice (WT+/−50 mg/kg sulfasalazine and Trembler J+/−50 mg/kg sulfasalazine). Nerves were fixed in 2% (w/v) glutaraldehyde in 0.1 M phosphate buffer (pH 7.4) for 4 h, followed by washing with 0.1 M phosphate buffer. […] Sample sections were evaluated using light microscopy.

Assay [2] concerns Tr-J mice (CMT mouse model). Kind of assay: Rotarod test in mice. In kind it is in vivo. Conditions: 50 mg/kg per day orally for 2 months. (In general: The rotarod test checks motor coordination on a turning rod.)
For assay [3], the system named is Tr-J mice (CMT mouse model). Kind of assay: Twitch/tetanus isometric force of soleus muscle. In kind it is in vivo. The settings on record: 50 mg/kg, 2 months, vs placebo-treated mice, FIG. 11.
The next assay has as its system Zebrafish (Danio rerio). Kind of assay: Remyelination in MTZ-demyelinated genetically engineered zebrafish, confocal fluorescence. In kind it is in vivo. The settings on record: demyelinated central and peripheral nervous system; 10 uM.
The subject of a further assay is PMP22. In words: PMP22 protein amount in PMP22-overexpressing SH-SY5Y cells by Western blot. Type of assay: cell-based, human. Conditions: for amount of the PMP22 protein compared to negative control and positive control (AA): FIGS. 5A/5B. The protocol:
(§1) SH-SY5Y cells were inoculated at a concentration of 10^5 cells/ml in each well of a 12-well plate including 2 ml of a DMEM medium containing 10% FBS, 100 units/ml of penicillin, and 100 units/ml of streptomycin and incubated until the cell density was about 60% to about 65% in a 5% CO2 incubator at 37°. Then, dapsone (4,4′-diaminodiphenylsulfone, DDS) (available from Sigma), MADDS (available from Sigma), SSZ (available from Sigma), and SCM (available from Sigma) were respectively added to the wells at various concentrations and incubated for 24 hours under the same conditions. Vitamin C (ascorbic acid, AA) (available from Sigma) was used as the positive control group. Vitamin C is known as having an effect of treating peripheral neuropathy by using a cAMP modulator. SH-SY5Y cells are a human-derived cell line used in scientific research. The original cell line, SK-N-SH from which SH-SY5Y cells were subcloned, was isolated from a bone marrow biopsy taken from a person with neuroblastoma. SH-SY5Y cells are often used as in vitro models of neuronal function and differentiation. The SH-SY5Y cells used herein have been modified to consistently overexpress the human PMP22 gene by lentiviral mediated integration of PMP22 into a chromosome.
After removing 2 ml of the culture medium, the SH-SY5Y cells were washed with phosphate buffered saline (PBS), and a lysis solution, 0.5% Triton X-100, in PBS was added thereto. Then, cells were collected using a scraper, left in ice for 30 minutes, and then, the cells were disrupted. Using a bicinchoninic acid (BCA) protein assay, the amount of protein in each sample was normalized to 1 ug/ul. SDS-PAGE (Invitrogen) was performed on the sample, and then Western blotting was performed with rabbit anti-PMP22 (Novus biological) and rabbit anti-actin (Sigma) primary antibodies, and an anti-rabbit secondary antibody.
Background: Immunoblotting shows a protein as a band on a membrane.

In the next assay the test system is PMP22 mRNA. Kind of assay: PMP22 mRNA expression in SH-SY5Y cells by RT-PCR. In kind it is cell-based, human. The settings on record: according to DDS concentration; FIG. 2. The protocol:
as §1, with “SH-SY5Y cells are often used as in vitro models of neuronal function and differentiation. The SH-SY5Y cells used herein have been modified to consistently overexpress the human PMP22 gene by lentiviral mediated integration of PMP22 into a chromosome.” left out
Also, RNA from treated and untreated SH-SY5Y cells was extracted by with Trizol (Invitrogen). PM22 gene expression was analyzed by using a one-step RT-PCR kit (Qiagen), whereby the extracted RNA was mixed with a PMP22 gene specific primer set of SEQ ID NOS: 1 and 2, and a real time-PCR (RT-PCR) was performed to confirm the degree of mRNA expression.

For `O=C(O)c1cc(/N=N/c2ccc(S(=O)(=O)Nc3ccccn3)cc2)ccc1O` [SSZ], the “g-ratio of sciatic nerve” value in assay [1] (Tr-J mice, vs vehicle treated Tr-J mice, FIG. 10C) was “significantly lower”. Besides, in assay [1] (Tr-J mouse, vs vehicle-treated Tr-J mouse, FIG. 10A), the “number of myelinated axons in sciatic nerve” value is on record as “significantly increased”. For the same compound, in assay [2] (Tr-J mice, vs placebo-treated Tr-J mice), the time on rod result is “significantly increased”. Moreover, the time on rod result in assay [2] (WT mice, vs placebo-treated WT mice) is “decreased”. For the same compound, in assay [3], the “tetanus contraction in Soleus tendon” value is reported as “significantly increased” and the “twitch contraction in Soleus tendon” value is “significantly increased”. Besides, the “effect on the promotion of remyelination” value in the assay with Zebrafish (Danio rerio) is given as “confirmed”.

For `CC(=O)Nc1ccc(S(=O)(=O)c2ccc(N)cc2)cc1` [MADDS, mono N-acetyldapsone], the “amount of the PMP22 protein compared to negative control and positive control (AA)” value in the assay on PMP22 is given as “significantly decreased”. In addition, the “effect on the promotion of remyelination” value in the assay on Zebrafish (Danio rerio) was “confirmed”.

On to `CC(=O)NS(=O)(=O)c1ccc(N)cc1` [SCM, N-[(4-aminophenyl)sulfonyl]acetamide], for which the “amount of the PMP22 protein compared to the control group” value in the assay on PMP22 (vs DMSO control, FIGS. 4A/4B) is given as “decreased”. The “effect on the promotion of remyelination” value with Zebrafish (Danio rerio) is on record as “confirmed”.

As for `Nc1ccc(S(=O)(=O)c2ccc(N)cc2)cc1` [DDS, 4,4′-diaminodiphenylsulfone], the “amount of the PMP22 protein compared to negative control and positive control (AA)” value in the assay on PMP22 is “significantly decreased”. For the same compound, the “amount of PMP22 protein” value in the assay with PMP22 (as the concentration of DDS increases, 24 hours, n=4, FIGS. 1A/1B) is “decreased”. Further, the “expression of PM22 mRNA” value in the assay on PMP22 mRNA is “did not show a significant difference”. Further, the “effect on the promotion of remyelination” value in the assay with Zebrafish (Danio rerio) is “confirmed”.
